# Results published in US7815900B1, “Use of C3-C5 monosaccharides to protect keratinous fibers” (L'Oréal S.A., priority 2000, dated 2010).
# How the values were obtained:
# [1] = DSC doublet peak area (α-structure) of hair after heat cycles
# Procedure: Normal blonde hair was bleached with Clairol Basic White Bleach (40 volume H2O2) for 20 min at standard room temperature and humidity. The bleached swatches were rinsed with tap water, and soaked in an excess of deionized water for 2 hours. The swatches were air-dried and equilibrated for 48 hours prior to further treatment. Some of the bleached swatches were subsequently “permed” using a Reforming Lotion (10% TGA, pH 8.8, 20 minutes) and then neutralized with 2% H2O2, pH 3 (5 minutes). The bleached/permed swatches were rinsed with tap water, and soaked in an excess of deionized water for 2 hours. The swatches were air-dried and equilibrated for 48 hours prior to further treatment. The swatches that were heat treated were treated with 0.06M solutions of hexoses and pentoses for 10 min at 45° C. and then were heated for 12 cycles. The swatches were rinsed after the heat application.
# In the DSC tests, finely cut hair (4-5 mg) was crimped in an aluminum pan that was punctured prior to each run. The samples were heated from 25° C. to 300° C., at a scanning rate of 20° C./min, with 5 runs per treatment. The results were averaged.
# Normal blonde hair was bleached with Clairol Basic White Bleach, 40 volume H2O2, for 20 min at room temperature. One batch of normal and bleached hair swatches underwent five heat cycles at 130° C., where one treatment cycle involved the following steps (1-4):
# 1. The swatches were treated with 0.06 M solutions of monosaccharides in deionized water (about 1 wt %) for 10 min at 45° C.
# 2. The treated swatches were blow-dried for 1 min.
# 3. The heat was applied for 1 min in the form of a flat hair iron Windmere “Solid Gold” (130° C.).
# 4. The swatches were rinsed and blot-dried with a paper-towel.
# The treatment solutions included four pentoses (D-xylose, D-arabinose, D-lyxose, and D-ribose, 1% each) and one hexose (1.2% D-glucose). Deionized water was used as a control treatment. After the heat experiment, the hair was rinsed in water, air-dried, and equilibrated for 24 hours in the humidity chamber at 25° C. and 50% RH prior to further testing. These swatches are referred to as treated at 130° C.
# A second batch of normal and bleached hair swatches were treated in a similar way and blow-dried, without application of the hot iron. The treatment was also repeated 5 times, the swatches from the second batch are referred to as treated at 45° C.
# Normal blonde hair was divided in two batches. The hair from the first batch was bleached with Clairol Basic White Bleach, 40 volume H2O2, for 20 min at room temperature and humidity. The hair from the second batch was first bleached as above, and then permed: Reforming lotion-10% Thioglycolic acid, pH 8.8, 20 min; neutralizer-2% hydrogen peroxide, 5 min. The oxidatively damaged hair was equilibrated for 24 hours prior to further testing.
# Both the bleached and the bleached/permed hair were subjected to heat treatment, as in Example 2. The heat treatment experiment involved 12 heat cycles including application of sugar or control solution before each heat application, and rinsing after the heat application. Deionized water was used as a control treatment.
# After the heat experiment, the hair was rinsed in water, air-dried, and equilibrated for 24 h in the humidity chamber at 25° C. and 50% RH prior to further testing. The effect of the hexoses vs. pentoses on the dry tensile strength (INSTRON) and the alpha-structure (doublet peak area, DSC) was tested on the bleached hair (Table 13). The effect of a hexose (D-glucose) vs. a pentose (D-Xylose) on wet tensile strength (DIA-STRON) was tested both on the bleached and the bleached/permed hair (Table 14). Application of 0.06M solutions of pentoses protected the bleached and the bleached/permed hair against thermal damage (α-structure; wet and dry tensile strength).
# [2] = Wet tensile strength (Dia-Stron) after heat cycles; details: for Work 25% (Wet): 0.06 M solutions; for Work 25% (Wet) / Extension-Break / Work 25% / Work-Break / Young's Modulus: n = 100 fibers; for Extension-Break / Work 25% / Work-Break / Young's Modulus: 0.06 M, DIA-STRON; for Dia-Stron, wet fibers Extension: 1.0% solution, n = 100
# Procedure: Normal blonde hair was bleached with Clairol Basic White Bleach (40 volume H2O2) for 20 min at standard room temperature and humidity. The bleached swatches were rinsed with tap water, and soaked in an excess of deionized water for 2 hours. The swatches were air-dried and equilibrated for 48 hours prior to further treatment. Some of the bleached swatches were subsequently “permed” using a Reforming Lotion (10% TGA, pH 8.8, 20 minutes) and then neutralized with 2% H2O2, pH 3 (5 minutes). The bleached/permed swatches were rinsed with tap water, and soaked in an excess of deionized water for 2 hours. The swatches were air-dried and equilibrated for 48 hours prior to further treatment. The swatches that were heat treated were treated with 0.06M solutions of hexoses and pentoses for 10 min at 45° C. and then were heated for 12 cycles. The swatches were rinsed after the heat application. Tensile strength was determined using both the Instron (50 dry fibers per tests) and the Dia-Stron (100 wet fibers per test), with the stretching rate of 100 mm/min. The following parameters were determined: Young's Modulus (N/m^2), Work to stretch 25% (J/m^2); Extension to Break (degree of elongation) (%); Work to Break (J/m^2). Both the bleached and the bleached/permed hair were subjected to heat treatment, as in Example 2. The heat treatment experiment involved 12 heat cycles including application of sugar or control solution before each heat application, and rinsing after the heat application. Deionized water was used as a control treatment. After the heat experiment, the hair was rinsed in water, air-dried, and equilibrated for 24 h in the humidity chamber at 25° C. and 50% RH prior to further testing. The effect of the hexoses vs. pentoses on the dry tensile strength (INSTRON) and the alpha-structure (doublet peak area, DSC) was tested on the bleached hair (Table 13). The effect of a hexose (D-glucose) vs. a pentose (D-Xylose) on wet tensile strength (DIA-STRON) was tested both on the bleached and the bleached/permed hair (Table 14). Application of 0.06M solutions of pentoses protected the bleached and the bleached/permed hair against thermal damage (α-structure; wet and dry tensile strength).
# [3] = Hair chemical composition (lysine, arginine) after heat cycles; details: 1.0% solution
# Procedure: The repairing of the damaged hair by pentoses is further supported by changes in the hair chemical composition that are observed when the hair was treated with pentose solutions, followed by heat application. Specifically, the amounts of lysine and arginine decreased, as compared to the hair treated with water (Table 19). The change in the lysine/arginine content, in conjunction with the decreased extension to break, appears to indicate that some cross-linking processes occur when the hair is heated in the presence of pentoses.
# [4] = DSC double peak area of relaxed hair after treatment; details: for Double Peak Area: relaxed ethnic hair, 10 min at 45° C.
# Procedure: Kinky hair was relaxed using 2.5% sodium hydroxide (20 min at room temperature). The hair was thoroughly rinsed with water, and a treatment solution was applied for 10 min at 45° C. Each of the following treatment solutions were tested: a) 1% D-xylose, b) 5% D-xylose, and c) deionized water-control treatment.
# [5] = bleached hair after 12 heat cycles, 0.06 M solutions
# [6] = bleached hair after 12 heat cycles, 0.06 M solutions (Table 14)
# [7] = bleached hair, 5 cycles at 45° C., 0.06 M solutions
# [8] = bleached hair, 5 heat cycles at 130° C., 0.06 M solutions
# [9] = bleached hair after 12 heat cycles
# [10] = bleached/permed hair after 12 heat cycles
# [11] = wet bleached hair (blonde hair in the source) after 12 heat cycles
# [12] = wet bleached/permed hair after 12 heat cycles
# [13] = bleached hair after 12 cycles at 130° C.
# [14] = bleached/permed hair after 12 cycles at 130° C.
SMILES,"Doublet Peak Area [1, 5]","Doublet Peak Area [1, 6]","Doublet Peak Area [1, 7]","Doublet Peak Area [1, 8]","Work 25% (Wet) [2, 9]","Work 25% (Wet) [2, 10]","Extension-Break [2, 11]","Work 25% [2, 11]","Work-Break [2, 11]","Young's Modulus [2, 11]","Extension-Break [2, 12]","Work 25% [2, 12]","Work-Break [2, 12]","Young's Modulus [2, 12]",further results
"O=C[C@H](O)[C@@H](O)[C@H](O)[C@H](O)CO [D-Glucose, reference compound]",5.56 +/− 1.16 J/g hair,5.56 +/− 1.16 J/g hair,6.35 +/− 2.71 J/g hair,5.37 +/− 1.22 J/g hair,187.0 +/− 74.8 J/m^2,155.0 +/− 47.5 J/m^2,64.20 +/− 10.4%,187.0 +/− 74.8 J/m^2,"1,130 +/− 453 J/m^2",397.0 +/− 106.0 MN/m^2,63.50 +/− 7.65%,155.0 +/− 47.5 J/m^2,979.0 +/− 300 J/m^2,136.0 +/− 92.5 MN/m^2,"protection against heat treatment based on tensile properties and DSC, in words ([2]; Example 2, 12 heat cycles): little or no protection"
O=C[C@H](O)[C@@H](O)[C@H](O)CO [D-Xylose],9.74 +/− 2.13 J/g hair,9.74 +/− 2.13 J/g hair,8.41 +/− 1.33 J/g hair,9.66 +/− 2.59 J/g hair,432.0 +/− 137.0 J/m^2,199.0 +/− 74.2 J/m^2,52.80 +/− 9.29%,432.0 +/− 137.0 J/m^2,"1,600 +/− 526 J/m^2",434.0 +/− 99.1 MN/m^2,54.30 +/− 4.70%,199.0 +/− 74.2 J/m^2,620.0 +/− 231.0 J/m^2,170.0 +/− 88.6 MN/m^2,"protection effect (normalized α-structure peak area), in words ([1]; bleached and bleached/permed hair, 12 heat cycles): protection effect was found; Normalized area ([1]; bleached hair, 12 heat cycles, 0.06 M): 9.74 +/− 2.13 J/g hair; Arginine [3, 13]: 8.0 +/− 0.1 wt %; Arginine [3, 14]: 7.2 +/− 0.1 wt %; Lysine [3, 14]: 1.6 +/− 0.1 wt %; extension to break compared to non-treated or water-treated hair, in words ([2]; bleached and bleached/permed hair, 1% solution prior to heat application): significantly shorter; Dia-Stron, wet fibers Extension [2, 13]: 52.80 +/− 9.29%; Dia-Stron, wet fibers Extension [2, 14]: 54.30 +/− 4.70%; protection against heat (wet tensile properties) compared to water and 1.2% D-glucose, in words ([2]; wet bleached and bleached/permed hair, 12 heat cycles, 1% solution): statistically significant protection against heat; Double Peak Area ([4]; 1% solution): 14.10 +/− 2.52 J/g hair; Double Peak Area ([4]; 5% solution): 21.35 +/− 19.02 J/g hair; protection of relaxed hair (α-structure, tensile strength, cuticle loss) compared to water, in words ([4]; relaxed kinky hair): protected"
